Assay results taken from ChEMBL document CHEMBL4732079, “Design, synthesis and antitumor evaluation of new 1,8-naphthalimide derivatives targeting nuclear DNA” (Eur J Med Chem, 2021).

What was measured:
[1] = tested on: SMMC-7721; assay: Antiproliferative activity against human SMMC-7721 cells by MTT assay; format: functional, cell-based
[2] = tested on: T-24; assay: Antiproliferative activity against human T-24 cells by MTT assay; format: functional, cell-based
[3] = tested on: SK-OV-3; assay: Antiproliferative activity against human SK-OV-3 cells by MTT assay; format: functional, cell-based
[4] = tested on: MGC-803; assay: Antiproliferative activity against human MGC-803 cells by MTT assay; format: functional, cell-based
[5] = tested on: A549; assay: cells; conditions: Homo sapiens
Description: Antiproliferative activity against human A549 cells by MTT assay

[6] = tested on: MGC-803; assay: Antitumor activity against human MGC-803 cells xenografted in BALB/c nude mice assessed as tumor increment rate at 5 mg/kg, ip measured after 21 days relative to control; format: functional; conditions: time 21 day
[7] = tested on: MGC-803; assay: Antitumor activity against human MGC-803 cells xenografted in BALB/c nude mice assessed as tumor inhibitory rate at 5 mg/kg, ip measured after 21 days relative to control; format: functional; conditions: Mus musculus, MGC-803, ip, 504 h, time 21 day

SMILES	IC50 [1] [µM]	IC50 [2] [µM]	IC50 [3] [µM]	IC50 [4] [µM]	IC50 [5] [µM]	T/C [6] [%]	inhibition in vivo at 5 mg/kg [7] [%]
Cc1ccc(S(=O)(=O)N2CCN(c3c([N+](=O)[O-])cc4c5c(cccc35)C(=O)N(CCc3ccc(O)c(O)c3)C4=O)CC2)cc1	12.3	11.4	20.4	21.8	24.7	–	–
Cc1ccc(S(=O)(=O)N2CCN(c3c([N+](=O)[O-])cc4c5c(cccc35)C(=O)N(CCc3ccc5c(c3)OCO5)C4=O)CC2)cc1	16.6	9.17	28.9	12.8	41.8	–	–
COc1ccc(CN2C(=O)c3cccc4c(N5CCN(S(=O)(=O)c6ccc(C)cc6)CC5)c([N+](=O)[O-])cc(c34)C2=O)cc1	30.2	14.1	24.1	16.3	26.9	–	–
CCCCN1C(=O)c2cccc3c(N4CCN(S(=O)(=O)c5ccc(C)cc5)CC4)c([N+](=O)[O-])cc(c23)C1=O	12.5	10.9	33.6	21.3	36.8	–	–
O=C(c1ccccc1)N1CCN(c2c([N+](=O)[O-])cc3c4c(cccc24)C(=O)N(Cc2ccc(Cl)cc2)C3=O)CC1	13	20.9	15.9	19.9	47.7	–	–
Cc1ccc(S(=O)(=O)N2CCN(c3c([N+](=O)[O-])cc4c5c(cccc35)C(=O)N(Nc3ccccc3)C4=O)CC2)cc1	14.4	10.7	23.2	16.2	38.4	–	–
CC(C)(C)OC(=O)N1CCN(c2c([N+](=O)[O-])cc3c4c(cccc24)C(=O)N(CCc2ccc(O)c(O)c2)C3=O)CC1	27.5	11	8.87	8.77	42.1	–	–
O=C1c2cccc3c(N4CCN(C(=S)SCc5ccccc5)CC4)c([N+](=O)[O-])cc(c23)C(=O)N1Cc1ccccc1	13.5	13.1	34.2	21.7	> 50	–	–
Cc1ccc(S(=O)(=O)N2CCN(c3c([N+](=O)[O-])cc4c5c(cccc35)C(=O)N(Cc3ccccc3)C4=O)CC2)cc1	14.8	12.7	38.2	10.8	42.9	–	–
CC(C)(C)OC(=O)N1CCN(c2c([N+](=O)[O-])cc3c4c(cccc24)C(=O)N(CCO)C3=O)CC1	13.9	12.8	13.4	27.4	45.6	–	–
CNCCCN1C(=O)c2cccc3c(N4CCN(C(=O)c5ccccc5)CC4)c([N+](=O)[O-])cc(c23)C1=O	4.73	4.65	4.11	8.22	6.66	–	–
CN(C)CCN1C(=O)c2cccc3cc([N+](=O)[O-])cc(c23)C1=O [MITONAFIDE]	3.22	1.11	1.38	6.8	0.012	–	–
O=C1c2cccc3c(N4CCN(C(=S)SCc5ccccc5)CC4)c([N+](=O)[O-])cc(c23)C(=O)N1Nc1ccccc1	14.8	13.3	> 50	18.4	> 50	–	–
CC(C)(C)OC(=O)N1CCN(c2c([N+](=O)[O-])cc3c4c(cccc24)C(=O)N(CCc2ccc4c(c2)OCO4)C3=O)CC1	14.4	9.71	7.48	25.2	16.5	–	–
O=C1c2cccc3c(N4CCN(C(=S)SCc5ccccc5)CC4)c([N+](=O)[O-])cc(c23)C(=O)N1Cc1ccc(Cl)cc1	8.83	10.3	29.7	20.7	40	–	–
O=c1[nH]cc(F)c(=O)[nH]1 [FLUOROURACIL]	15.3	40.1	–	34.9	–	–	–

SMILES	IC50 [1] [µM]	IC50 [2] [µM]	IC50 [3] [µM]	IC50 [4] [µM]	IC50 [5] [µM]	T/C [6] [%]	inhibition in vivo at 5 mg/kg [7] [%]
O=C1c2cccc3c(N4CCN(C(=S)SCc5ccccc5)CC4)c([N+](=O)[O-])cc(c23)C(=O)N1Cc1ccco1	11.6	18.4	40.4	21.2	44.5	–	–
Cc1ccc(S(=O)(=O)N2CCN(c3c([N+](=O)[O-])cc4c5c(cccc35)C(=O)N(Cc3ccco3)C4=O)CC2)cc1	14.7	8.43	29.5	29.9	47.2	–	–
Cc1ccc(S(=O)(=O)N2CCN(c3c([N+](=O)[O-])cc4c5c(cccc35)C(=O)N(Cc3ccc(Cl)cc3)C4=O)CC2)cc1	17.6	6.37	30.4	28.9	> 50	–	–
CN(C)CCN1C(=O)c2cccc3c(N4CCN(C(=O)OC(C)(C)C)CC4)c([N+](=O)[O-])cc(c23)C1=O	1.05	0.83	0.65	1.33	1.08	–	–
CNCCCN1C(=O)c2cccc3c(N4CCN(C(=O)OC(C)(C)C)CC4)c([N+](=O)[O-])cc(c23)C1=O	5.91	3.05	8.65	6.44	7.52	–	–
O=C1c2cccc3c(N4CCN(C(=S)SCc5ccccc5)CC4)c([N+](=O)[O-])cc(c23)C(=O)N1CCc1ccc(O)c(O)c1	22.5	10.7	26.3	25.4	17.4	–	–
COc1ccc(CN2C(=O)c3cccc4c(N5CCN(C(=S)SCc6ccccc6)CC5)c([N+](=O)[O-])cc(c34)C2=O)cc1	17.9	10.8	27	31.1	38.6	–	–
O=C1c2cccc3c(N4CCN(C(=S)SCc5ccccc5)CC4)c([N+](=O)[O-])cc(c23)C(=O)N1CCO	14.3	13.2	31.4	15.4	> 50	–	–
O=C(c1ccccc1)N1CCN(c2c([N+](=O)[O-])cc3c4c(cccc24)C(=O)N(CCO)C3=O)CC1	12	9.93	16.8	12.9	31.3	–	–
CN(C)CCN1C(=O)c2cccc3cc(N)cc(c23)C1=O [AMONAFIDE]	6.93	5.01	6.31	9.06	7.94	34.4	65.5
Cc1ccc(S(=O)(=O)N2CCN(c3c([N+](=O)[O-])cc4c5c(cccc35)C(=O)N(CCO)C4=O)CC2)cc1	15.8	6.8	12.2	16	20.8	–	–
CC(C)(C)OC(=O)N1CCN(c2c([N+](=O)[O-])cc3c4c(cccc24)C(=O)N(Cc2ccc(Cl)cc2)C3=O)CC1	7.76	9.52	12.7	16.1	40.4	–	–
O=C1c2cccc3c(N4CCN(C(=S)SCc5ccccc5)CC4)c([N+](=O)[O-])cc(c23)C(=O)N1CCc1ccc2c(c1)OCO2	12.9	9.16	44.8	20.7	33.4	–	–
CN(C)CCN1C(=O)c2cccc3c(N4CCN(C(=S)SCc5ccccc5)CC4)c([N+](=O)[O-])cc(c23)C1=O	3.17	2.06	2.4	6.08	1.98	–	–
O=C(c1ccccc1)N1CCN(c2c([N+](=O)[O-])cc3c4c(cccc24)C(=O)N(CCc2ccc(O)c(O)c2)C3=O)CC1	19.7	14.6	19.9	9.31	22.5	–	–
